The experiment has as its target human mGluR5 receptor (Homo sapiens (Human), UniProt P41594). In words: Calcium influx assay based on fluorescence (mGluR5 PAM activity). As to conditions: human mGluR5 receptor-overexpressed HEK293 cell line; L-glutamate EC20; Fluo-4, FLIPR. As for the experimental part:
Efficacy as a positive allosteric modulator (PAM) of mGluR5 of the compounds of the Examples was tested as follows:
Calcium Influx Assay Based on Fluorescence
Ca^2+ (calcium) influx assay is an experiment for measuring the activity of a positive allosteric modulator of mGluR5 receptor in which human mGluR5 receptor-overexpressed HEK293 cell line is used. The day before the experiment, cells were prepared in a cell culture medium (DMEM, 5% FBS) with the density of 80,000/well, and 100 μl of cells were dispensed into each well of a poly-D-lysine-coated 96-well plate. Cells were incubated in a 5% CO2, 37° C. incubator. The next day, the cell culture medium was removed from the plate, and 100 μl of 1× Fluo-4 calcium indicator diluted with a buffer (1× Hank's balanced salt solution, 20 mM HEPES, 2.5 mM probenecid) were added to each well and incubated at 37° C. for 1 hour. The compound stock solutions were prepared in 100% DMSO, and the compounds were serially diluted with a ¼ dilution to 6 or 7 concentrations (final concentration was 10 μM to 10 nM). The diluted compound solutions were added to the plate with 0.1 to 0.2% of final DMSO concentration. 1 hour after the addition of Fluo-4 calcium indicator, L-glutamate (EC20 concentration) and the test compound solutions were added to the plate, and Ca^2+ reaction was then measured by FLIPR at room temperature. The activity of the compounds was standardized on the basis of the results of maximum value-minimum value of fluorescent reaction, and the activity value was calculated on the basis that no activity on glutamate EC20 is 0% and the reaction to glutamate maximum value is 100%.
human mGluR5 receptor, sequence (P41594 21-1212): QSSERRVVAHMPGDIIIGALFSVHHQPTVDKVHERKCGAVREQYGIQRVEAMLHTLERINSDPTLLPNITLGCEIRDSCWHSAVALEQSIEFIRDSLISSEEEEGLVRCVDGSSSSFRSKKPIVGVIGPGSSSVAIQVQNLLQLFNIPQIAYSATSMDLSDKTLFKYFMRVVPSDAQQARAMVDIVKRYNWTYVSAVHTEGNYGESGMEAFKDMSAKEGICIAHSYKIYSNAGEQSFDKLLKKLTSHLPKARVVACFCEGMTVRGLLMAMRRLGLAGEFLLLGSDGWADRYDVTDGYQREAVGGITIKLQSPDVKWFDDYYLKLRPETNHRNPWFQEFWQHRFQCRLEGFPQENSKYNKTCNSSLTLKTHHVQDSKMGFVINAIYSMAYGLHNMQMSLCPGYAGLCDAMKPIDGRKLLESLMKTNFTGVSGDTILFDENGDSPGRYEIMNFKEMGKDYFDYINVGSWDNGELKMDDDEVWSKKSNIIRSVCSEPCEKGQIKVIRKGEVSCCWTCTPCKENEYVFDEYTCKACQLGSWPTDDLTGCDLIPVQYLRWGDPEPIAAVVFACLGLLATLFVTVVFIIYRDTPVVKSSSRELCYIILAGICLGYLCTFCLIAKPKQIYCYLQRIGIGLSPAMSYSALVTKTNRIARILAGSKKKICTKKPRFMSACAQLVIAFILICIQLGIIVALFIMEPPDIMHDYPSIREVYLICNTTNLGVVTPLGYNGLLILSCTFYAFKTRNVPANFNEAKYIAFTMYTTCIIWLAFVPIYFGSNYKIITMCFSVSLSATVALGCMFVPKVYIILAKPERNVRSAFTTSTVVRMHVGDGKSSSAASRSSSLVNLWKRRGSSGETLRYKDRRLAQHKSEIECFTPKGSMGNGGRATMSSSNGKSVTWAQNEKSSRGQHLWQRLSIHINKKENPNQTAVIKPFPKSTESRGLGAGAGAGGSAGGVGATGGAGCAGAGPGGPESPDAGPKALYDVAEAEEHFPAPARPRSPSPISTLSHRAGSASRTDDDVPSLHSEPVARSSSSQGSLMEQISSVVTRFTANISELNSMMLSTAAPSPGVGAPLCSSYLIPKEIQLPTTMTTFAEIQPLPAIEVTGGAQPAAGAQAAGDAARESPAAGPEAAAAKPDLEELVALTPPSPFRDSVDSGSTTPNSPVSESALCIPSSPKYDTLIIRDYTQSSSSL
As to `Fc1ccc(-c2cnc3nc(COc4ccccc4)cn3c2)c(Cl)c1` [Example 15, 6-(2-chloro-4-fluorophenyl)-2-phenoxymethylimidazo[1,2-a]pyrimidine], the EC50 (usually the concentration that produces a half-maximal response) lay within 100 to 500 nM.

Take `Cc1ccccc1-c1cnc2nc(COc3ccc(F)cc3)cn2c1` [Example 60, 2-[(4-fluorophenoxy)methyl]6-(o-tolyl)imidazo[1,2-a]pyrimidine]: the EC50 was 100 to 500 nM. With `Fc1cccc(OCc2cn3cc(-c4ccnc(F)c4)cnc3n2)c1` [Example 79, 2-[(3-fluorophenoxy)methyl]-6-(2-fluoro-4-pyridyl)imidazo[1,2-a]pyrimidine] the figure was 100 to 500 nM; with `Fc1ccc(OCc2cn3cc(-c4ccc(F)nc4)cnc3n2)cc1` [Example 51, 2-[(4-fluorophenoxy)methyl]-6-(6-fluoro-3-pyridyl)imidazo[1,2-a]pyrimidine], 100 to 500 nM; with `Cc1ccccc1-c1cnc2nc(COc3ccccn3)cn2c1` [Example 103, 6-(2-methylphenyl)-2-(pyridin-2-yloxymethyl)imidazo[1,2-a]pyrimidine], 100 to 500 nM. With `Cc1cc(F)ccc1-c1cnc2nc(COc3ccnc(F)c3)cn2n1` [Example 184, 2-(4-fluoro-2-methylphenyl)-6-((2-fluoropyridin-4-yloxy)methyl)imidazo[1,2-b][1,2,4]triazine] the figure was 100 to 500 nM; with `Fc1cccc(OCc2cn3cc(-c4ccc(F)cc4C(F)(F)F)cnc3n2)c1` [Example 94, 2-[(3-fluorophenoxy)methyl]-6-[4-fluoro-2-(trifluoromethyl)phenyl]imidazo[1,2-a]pyrimidine], 100 to 500 nM; with `FCc1cc(F)ccc1-c1cnc2nc(COc3ccc(F)cc3)cn2c1` [Example 199, 6-[4-fluoro-2-(fluoromethyl)phenyl]-2-[(4-fluorophenoxy)methyl]imidazo[1,2-a]pyrimidine], 100 to 500 nM. With `CC(C)c1ccccc1-c1cnc2nc(COc3ccccn3)cn2c1` [Example 143, 6-(2-isopropylphenyl)-2-(2-pyridyloxymethyl)imidazo[1,2-a]pyrimidine] the figure was 500 to 1000 nM; with `Cc1c(F)cccc1-c1cnc2nc(COc3ccccn3)cn2c1` [Example 109, 6-(3-fluoro-2-methylphenyl)-2-(pyridin-2-yloxymethyl)imidazo[1,2-a]pyrimidine], 100 to 500 nM. As to `COc1cc(F)ccc1-c1cnc2nc(COc3cncc(F)c3)cn2c1` [Example 155, 6-(4-fluoro-2-methoxyphenyl)-2-(5-fluoropyridin-3-yloxymethyl)imidazo[1,2-a]pyrimidine], the EC50 was in the range of 100 to 500 nM. For the molecule `Oc1ccccc1-c1cnc2nc(COc3ccnc(F)c3)cn2c1` [Example 169, 6-(2-hydroxyphenyl)-2-(2-fluoropyridin-4-yloxymethyl)imidazo[1,2-a]pyrimidine], the EC50 is 100 to 500 nM. Turning to `CSc1cc(F)ccc1-c1cnc2nc(COc3ccc(F)cc3)cn2c1` [Example 98, 6-(4-fluoro-2-methylsulfanyl-phenyl)-2-[(4-fluorophenoxy)methyl]imidazo[1,2-a]pyrimidine], the EC50 lay in the range of 100 to 500 nM. With `Cc1cc(F)ccc1-c1cnc2nc(COc3cncc(F)c3)cn2c1` [Example 154, 6-(4-fluoro-2-methylphenyl)-2-(5-fluoro-pyridin-3-yloxymethyl)imidazo[1,2-a]pyrimidine] the figure was 100 to 500 nM. The same measure for `Fc1ccc(-c2cnc3nc(COc4cccc(F)c4)cn3c2)cc1` [Example 54, 2-[(3-fluorophenoxy)methyl]-6-(4-fluorophenyl)imidazo[1,2-a]pyrimidine]: 100 to 500 nM. Turning to `Fc1ccc(-c2cnc3nc(COc4ccccc4)cn3c2)cc1F` [Example 19, 6-(3,4-difluorophenyl)-2-phenoxymethylimidazo[1,2-a]pyrimidine], the EC50 is 500 to 1000 nM. Turning to `Fc1cccc(-c2cnc3nc(COc4ccccc4)cn3c2)c1F` [Example 7, 6-(2,3-difluorophenyl)-2-phenoxymethylimidazo[1,2-a]pyrimidine], the EC50 lay in the range of 100 to 500 nM. Consider `CN(C)c1ccccc1-c1cnc2nc(COc3ccccc3)cn2c1` [Example 14, 6-(2-dimethylaminophenyl)-2-phenoxymethylimidazo[1,2-a]pyrimidine], for which the half-maximal effective concentration (EC50) was in the range of 100 to 500 nM. `Fc1ccc(OCc2cn3cc(-c4ccc(F)cc4)cnc3n2)cc1` [Example 53, 2-[(4-fluorophenoxy)methyl]-6-(4-fluorophenyl)imidazo[1,2-a]pyrimidine]: the EC50 was 100 to 500 nM. Turning to `Nc1ccccc1-c1cnc2nc(COc3ccccc3)cn2c1` [Example 10, 6-(2-aminophenyl)-2-phenoxymethylimidazo[1,2-a]pyrimidine], the half-maximal effective concentration (EC50) was in the range of 100 to 500 nM. Regarding `Oc1cccc(-c2cnc3nc(COc4ccccc4)cn3c2)c1` [Example 17, 6-(3-hydroxyphenyl)-2-phenoxymethylimidazo[1,2-a]pyrimidine], the concentration for a half-maximal effect (EC50) was 500 to 1000 nM. The same measure for `Oc1ccccc1-c1cnc2nc(COc3ccccc3)cn2c1` [Example 16, 6-(2-hydroxyphenyl)-2-phenoxymethylimidazo[1,2-a]pyrimidine]: 500 to 1000 nM. The same measure for `Fc1cccc(OCc2cn3cc(-c4ccncc4Cl)cnc3n2)c1` [Example 45, 6-(3-chloropyridin-4-yl)-2-(3-fluorophenoxymethyl)imidazo[1,2-a]pyrimidine]: 100 to 500 nM; for `COc1cc(Cl)ccc1-c1cnc2nc(COc3ccc(F)cc3)cn2c1` [Example 69, 6-(4-chloro-2-methoxy-phenyl)-2-[(4-fluorophenoxy)methyl]imidazo[1,2-a]pyrimidine]: 100 to 500 nM; for `Fc1ccc(-c2cnc3nc(COc4cccnc4)cn3c2)cc1` [Example 146, 6-(4-fluorophenyl)-2-(pyridin-3-yloxymethyl)imidazo[1,2-a]pyrimidine]: 500 to 1000 nM. As for `COc1cc(Cl)ccc1-c1cnc2nc(COc3ccccn3)cn2c1` [Example 111, 6-(4-chloro-2-methoxyphenyl)-2-(pyridin-2-yloxymethyl)imidazo[1,2-a]pyrimidine], the EC50 lay in the range of 100 to 500 nM. With `Nc1cc(-c2cnc3nc(COc4ccc(F)cc4)cn3c2)ccc1F` [Example 70, 2-fluoro-5-[2-[(4-fluorophenoxy)methyl]imidazo[1,2-a]pyrimidin-6-yl]aniline] the figure was 100 to 500 nM. The same measure for `Cc1ccc(N)cc1-c1cnc2nc(COc3ccccc3)cn2c1` [Example 11, 6-(3-amino-6-methylphenyl)-2-phenoxymethylimidazo[1,2-a]pyrimidine]: 100 to 500 nM.

Regarding `NC(=O)OCc1cc(F)ccc1-c1cnc2nc(COc3ccc(F)cc3)cn2c1` [Example 193, [5-fluoro-2-[2-[(4-fluorophenoxy)methyl]imidazo[1,2-a]pyrimidin-6-yl]phenyl]methyl carbamate], the EC50 is 100 to 500 nM. With `Cc1cc(F)ncc1-c1cnc2nc(COc3ccccc3)cn2c1` [Example 38, 6-(6-fluoro-4-methyl-3-pyridyl)-2-phenoxymethylimidazo[1,2-a]pyrimidine] the figure was 100 to 500 nM. Take `Cc1ccc(F)cc1-c1cnc2nc(COc3ccccn3)cn2c1` [Example 108, 6-(5-fluoro-2-methylphenyl)-2-(pyridin-2-yloxymethyl)imidazo[1,2-a]pyrimidine]: the EC50 fell in the range of 500 to 1000 nM. With `OCc1cc(F)ccc1-c1cnc2nc(COc3cncc(F)c3)cn2c1` [Example 177, [5-fluoro-2-[2-[(5-fluoro-3-pyridyl)oxymethyl]imidazo[1,2-a]pyrimidin-6-yl]phenyl]methanol] the figure was 500 to 1000 nM; with `COc1ccc(-c2cnc3nc(COc4ccc(F)cc4)cn3c2)cc1N` [Example 84, 5-[2-[(4-fluorophenoxy)methyl]imidazo[1,2-a]pyrimidin-6-yl]-2-methoxy-aniline], 500 to 1000 nM; with `Fc1ncccc1-c1cnc2nc(COc3ccccc3)cn2c1` [Example 29, 6-(2-fluoropyridin-3-yl)-2-phenoxymethylimidazo[1,2-a]pyrimidine], 100 to 500 nM. The same measure for `COc1cc(F)ccc1-c1cnc2nc(COc3ccnc(F)c3)cn2c1` [Example 163, 6-(4-fluoro-2-methoxyphenyl)-2-(2-fluoropyridin-4-yloxymethyl)imidazo[1,2-a]pyrimidine]: 100 to 500 nM; for `Cc1ccc(-c2cnc3nc(COc4ccc(F)cc4)cn3c2)cc1N` [Example 72, 5-[2-[(4-fluorophenoxy)methyl]imidazo[1,2-a]pyrimidin-6-yl]-2-methyl-aniline]: 100 to 500 nM. For `Fc1ccc(OCc2cn3cc(-c4ccc(C(F)(F)F)nc4)cnc3n2)nc1` [Example 131, 2-[(5-fluoro-2-pyridyl)oxymethyl]-6-[6-(trifluoromethyl)-3-pyridyl]imidazo[1,2-a]pyrimidine], the EC50 was in the range of 100 to 500 nM.

For `Fc1ccc(-c2cnc3nc(COc4ccccc4)cn3c2)cn1` [Example 31, 6-(6-fluoropyridin-3-yl)-2-phenoxymethylimidazo[1,2-a]pyrimidine], the EC50 is 100 to 500 nM. `Fc1cccc(-c2cnc3nc(COc4ccccn4)cn3c2)c1F` [Example 107, 6-(2,3-difluorophenyl)-2-(pyridin-2-yloxymethyl)imidazo[1,2-a]pyrimidine]: the EC50 was in the range of 500 to 1000 nM.

The record behind these values is patent US9745310B2 (SK BIOPHARMACEUTICALS CO., LTD., priority 2015, dated 2017).
